In patent US12018023B2 (NERVIANO MEDICAL SCIENCES S.R.L., priority 2018, dated 2024):

Tests used:
Format in all cases: biochemical
[1] = target: T1, IDH1^R132H homodimer enzyme (Homo sapiens, UniProt O75874, R132H); assay: NADPH depletion assay, IDH1 R132H
T1 construct: purchased not specified
Procedure, shortened: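 IDH1 R132H enzyme (8 nM as diluted) in Tris-HCl pH 7.6 with 10 mM MgCl2, 0.001% Triton X-100 and 4 mM β-mercaptoethanol is preincubated 15 min at RT with compound. Substrate mix (12 uM NADPH, 3.4 mM α-ketoglutarate) is added for 60 min; remaining NAD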

[2] = target: T2, IDH1^R132C (Homo sapiens, UniProt O75874, R132C); assay: NADPH depletion assay, IDH1 R132C
T2 construct: purchased not specified
Procedure, shortened: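 Fluorescence readout (Ex544/Em590) of NADPH left after diaphorase/resazurin addition. Alpha-ketoglutarate 0.14 mM final, enzyme 2 nM final; compound preincubation 15 min, then 60 min reaction, both at room temperature, pH 7.6 Tris buffer.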

[3] = target: T3, IDH2^R172K (Homo sapiens, UniProt P48735, R172K); assay: NADPH depletion assay, IDH2 R172K
T3 construct: purchased not specified
T3 sequence (P48735 40-452 R172K): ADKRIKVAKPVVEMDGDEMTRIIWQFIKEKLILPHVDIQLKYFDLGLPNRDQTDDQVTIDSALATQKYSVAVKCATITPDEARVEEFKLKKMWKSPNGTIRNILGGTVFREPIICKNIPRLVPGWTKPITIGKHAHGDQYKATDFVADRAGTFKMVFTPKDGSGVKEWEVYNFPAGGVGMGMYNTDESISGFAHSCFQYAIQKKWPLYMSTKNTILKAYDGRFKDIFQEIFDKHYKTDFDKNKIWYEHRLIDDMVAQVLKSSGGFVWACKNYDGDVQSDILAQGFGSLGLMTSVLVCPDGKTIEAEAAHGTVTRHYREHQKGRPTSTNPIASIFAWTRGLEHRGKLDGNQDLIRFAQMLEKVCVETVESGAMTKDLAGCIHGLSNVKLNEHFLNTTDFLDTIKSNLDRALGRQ
Description: IDH mutated enzyme activity converting alpha-ketoglutarate to 2-hydroxyglutaric acid is measured using a NADPH depletion assay. In the assay the remaining cofactor is measured at the end of the reaction with the addition of a catalytic excess of diaphorase and resazurin, to generate a fluorescent signal in proportion to the amount of NADPH remaining. IDH1 WT enzyme as well as mutated isoforms IDH1^R132H, IDH1^R132C, and IDH^2R172K enzymes are commercially available proteins (see e.g. Sino Biological, Abcam, Active Motif or Creative BioMart).
IDH1^R132H homodimer enzyme are diluted to 8 nM, in 10 μL of Assay Buffer (150 mM NaCl, 50 mM Tris-HCl pH 7.6, 10 mM MgCl2, 0.001% Triton X-100, 4 mM β-mercaptoethanol); 0.2 uL of test compound, previously serially diluted 1 to 3, >10 experimental points from 1 mM in DMSO, is added and the mixture is incubated for 15 minutes at room temperature. The reaction is started with the addition of 10 μL of Substrate Mix (12 uM NADPH, 3.4 mM alpha-ketoglutarate in Assay Buffer) and the mixture is incubated for 60 minutes at room temperature. The reaction is terminated with the addition of 5 μl of Detection Buffer (100 μg/mL diaphorase, 30 μM resazurin, in IX Assay Buffer), and is incubated for 15 minute before reading on a ViewLux as platereader at Ex544/Em590.
Compounds are assayed for their activity against IDH2^R172K following the same assay as above with the following modifications: IDH2^R172K and alpha-ketoglutarate final concentrations in the Assay Buffer is 16 nM and 0.55 mM, respectively.

T1 sequence (O75874 whole entry R132H): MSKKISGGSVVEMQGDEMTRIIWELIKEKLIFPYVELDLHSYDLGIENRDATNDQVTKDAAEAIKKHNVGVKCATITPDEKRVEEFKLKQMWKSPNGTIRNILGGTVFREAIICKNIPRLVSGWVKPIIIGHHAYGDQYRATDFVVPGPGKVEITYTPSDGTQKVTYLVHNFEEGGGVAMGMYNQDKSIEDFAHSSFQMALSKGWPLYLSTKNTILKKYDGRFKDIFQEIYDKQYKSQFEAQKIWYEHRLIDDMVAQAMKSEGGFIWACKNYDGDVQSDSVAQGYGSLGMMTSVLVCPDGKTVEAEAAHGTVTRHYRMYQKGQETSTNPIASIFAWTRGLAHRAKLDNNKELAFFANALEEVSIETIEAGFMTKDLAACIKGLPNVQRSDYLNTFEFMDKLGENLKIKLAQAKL
T2 sequence (O75874 whole entry R132C): as the sequence (O75874 whole entry R132H) above, with H132C counted along it

SMILES	IC50 [1] [nM]	IC50 [2] [nM]	IC50 [3] [nM]
CC(C)[C@H](C)n1c(=O)ccc2cnc(N[C@@H](C)c3ccc(-c4ccnc(F)c4)cc3)nc21 [cpd 166, 2-({(1S)-1-[4-(2-fluoropyridin-4-yl)phenyl]ethyl}amino)-8-[(2S)-3-methylbutan-2-yl]pyrido[2,3-d]pyrimidin-7(8H)-one]	179	93	7570
COC(=O)C(C)(C)Cn1c(=O)ccc2cnc(N[C@@H](C)c3ccc4ccccc4c3)nc21 [cpd 37, methyl 2,2-dimethyl-3-[2-{[(1S)-1-(naphthalen-2-yl)ethyl]amino}-7-oxopyrido[2,3-d]pyrimidin-8(7H)-yl]propanoate]	1480	805	4850
C[C@H](Nc1ncc2ccc(=O)n(Cc3ccc(OC(F)(F)F)cc3)c2n1)c1ccc(Cl)cc1 [cpd 26, 2-{[(1S)-1-(4-chlorophenyl)ethyl]amino}-8-[4-(trifluoromethoxy)benzyl]pyrido[2,3-d]pyrimidin-7(8H)-one]	2360	1260	2200
C[C@H](Nc1ncc2ccc(=O)n(Cc3cccc(O)c3)c2n1)c1ccc(Cl)cc1 [cpd 71, 2-{[(1S)-1-(4-chlorophenyl)ethyl]amino}-8-(3-hydroxybenzyl)pyrido[2,3-d]pyrimidin-7(8H)-one]	2480	964	4830

Results, then the molecule that gave them:

IC50 [1] [nM]	IC50 [2] [nM]	IC50 [3] [nM]	SMILES
157	85	5660	CC(C)[C@H](C)n1c(=O)ccc2cnc(N[C@@H](C)c3ccc(-c4ccccc4C#N)cc3)nc21 [cpd 165, 4′-[(1S)-1-({8-[(2S)-3-methylbutan-2-yl]-7-oxo-7,8-dihydropyrido[2,3-d]pyrimidin-2-yl}amino)ethyl]biphenyl-2-carbonitrile]
59	16	1420	CC(C)[C@H](C)n1c(=O)ccc2cnc(N[C@@H](C)c3ccc(OC4CCN(C(=O)OCc5ccccc5)CC4)cc3)nc21 [cpd 146, 4-(4-{(S)-1-[8-((S)-1,2-Dimethyl-propyl)-7-oxo-7,8-dihydro-pyrido[2,3-d]pyrimidin-2-ylamino]-ethyl}-phenoxy)-piperidine-1-carboxylic acid benzyl ester]
30	23	2560	CC(C)[C@H](C)n1c(=O)ccc2cnc(N[C@@H](C)c3ccc(C4=CCN(C(=O)OC(C)(C)C)CC4)cc3)nc21 [cpd 167, tert-butyl 4-{4-[(1S)-1-({8-[(2S)-3-methylbutan-2-yl]-7-oxo-7,8-dihydropyrido[2,3-d]pyrimidin-2-yl}amino)ethyl]phenyl}-3,6-dihydropyridine-1(2H)-carboxylate]
46	30	5020	CC(C)[C@H](C)n1c(=O)ccc2cnc(N[C@@H](C)c3ccc(N4CCN(C(=O)OCc5ccccc5)CC4)c(F)c3)nc21 [cpd 178, Benzyl 4-{2-fluoro-4-[(1S)-1-({8-[(2S)-3-methylbutan-2-yl]-7-oxo-7,8-dihydropyrido[2,3-d]pyrimidin-2-yl}amino)ethyl]phenyl}piperazine-1-carboxylate]
